From patent US11660293B2, “Substituted 2-azabicyclo[3.1.1]heptane and 2-azabicyclo[3.2.1]octane derivatives as orexin receptor antagonists” (Chronos Therapeutics Limited, priority 2017, dated 2023) come the findings set out here.

Each structure is given as a SMILES string.

In data set [1] the target is human Orexin type 2 receptors (Homo sapiens (Human), UniProt O43614). Kind of data set: Scintillation Proximity Assay (SPA) binding assay, [3H]EMPA displacement, HEK-hOX2 membranes. The following applies: for OX2 pKi (SPA binding): Table 2, [3H]EMPA 2 nM; for Ki: Table 1, [3H]EMPA 2 nM, read-out: OX2 pKi (SPA binding) (converted). A general note: SPA uses beads or plates that emit light when radiolabelled molecules are held near them.
human Orexin type 2 receptors, sequence (O43614 whole entry): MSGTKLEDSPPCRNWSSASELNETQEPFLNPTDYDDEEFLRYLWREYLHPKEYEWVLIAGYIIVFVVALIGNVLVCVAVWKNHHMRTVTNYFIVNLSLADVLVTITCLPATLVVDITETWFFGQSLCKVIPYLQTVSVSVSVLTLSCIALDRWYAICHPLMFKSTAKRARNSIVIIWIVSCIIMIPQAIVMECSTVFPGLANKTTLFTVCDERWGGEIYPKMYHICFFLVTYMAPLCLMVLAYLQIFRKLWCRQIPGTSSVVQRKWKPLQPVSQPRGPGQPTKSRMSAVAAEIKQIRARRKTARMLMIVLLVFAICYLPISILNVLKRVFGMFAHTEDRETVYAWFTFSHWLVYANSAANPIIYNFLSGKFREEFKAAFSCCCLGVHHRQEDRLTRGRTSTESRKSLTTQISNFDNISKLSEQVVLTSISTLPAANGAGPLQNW

Data set [2] can be described thus: Measurement of brain fraction unbound (equilibrium dialysis). Format: in vitro ADME. The following applies: pH 7.4, rat brain homogenate, 37° C., read-out: FU brain (%, rat). As to the method:
Measurement of Brain Fraction Unbound (Equilibrium Dialysis)
Brain fractions unbound were determined using equilibrium dialysis in a 96-well format as described in Kalvass and Maurer, 2002. Brain homogenates were prepared using 2 ml/g CSF surrogate (7.30 g/l NaCl, 186.4 mg/l KCl, 239.9 mg/l MgCl2, 185.2 mg/l CaCl2), and 536.0 mg/l Na2HPO4.7H2O, pH 7.4). Dialysis membranes (12-14-kDA cutoff) obtained from Spectrum Laboratories Inc. (Rancho Dominguez, Calif.) were conditioned in water (HPLC grade) for 60 min, followed by 20 min in 20% ethanol, and 15 min in CSF surrogate.
Assay compound concentrations were 5 μM. Diluted brain homogenate was spiked with the compound of interest, and 150-μl aliquots were loaded into the 96-well equilibrium dialysis apparatus and dialyzed against an equal volume of CSF surrogate. Equilibrium was achieved by incubating the 96-well equilibrium dialysis apparatus in a temperature-controlled incubator at 37° C. for 5 h, using an orbital shaker at 125 rpm. At the end of the incubation period, 50-μl aliquots of brain homogenate and buffer were transferred to a 96-well plate, and the composition in each tube was balanced with control fluid to equalize the brain and buffer volumes. Sample extraction was performed by addition of 400 μl of acetonitrile containing internal standard (rolipram). The samples were then vortex-mixed and centrifuged, and 100 μl of supernatants was transferred into a 96-well plate, diluted with 200 μl of 16% acetonitrile/water, and analyzed by liquid chromatography-tandem mass spectrometry (LC-MS/MS).
The brain unbound fraction (FU brain) was calculated from the ratio of analyte/internal standard peak area ratios determined in buffer versus brain homogenate samples using equation (1), which accounts for the effect of tissue dilution on unbound fraction (Kalvass and Maurer, 2002):
[formula] where D is the dilution factor in brain homogenate and fu-diluted is the measured free fraction of diluted brain tissue. Results

For data set [3], the target named is human Orexin type 1 receptors (Homo sapiens (Human), UniProt O43613). As to the kind of experiment: Scintillation Proximity Assay (SPA) binding assay, [3H]SB-674042 displacement, CHO-hOX1 membranes. To be noted: for OX1 pKi (SPA binding): Table 2, [3H]SB-674042 2 nM; for Ki: Table 1, [3H]SB-674042 2 nM, read-out: OX1 pKi (SPA binding) (converted).
human Orexin type 1 receptors, sequence (O43613 whole entry): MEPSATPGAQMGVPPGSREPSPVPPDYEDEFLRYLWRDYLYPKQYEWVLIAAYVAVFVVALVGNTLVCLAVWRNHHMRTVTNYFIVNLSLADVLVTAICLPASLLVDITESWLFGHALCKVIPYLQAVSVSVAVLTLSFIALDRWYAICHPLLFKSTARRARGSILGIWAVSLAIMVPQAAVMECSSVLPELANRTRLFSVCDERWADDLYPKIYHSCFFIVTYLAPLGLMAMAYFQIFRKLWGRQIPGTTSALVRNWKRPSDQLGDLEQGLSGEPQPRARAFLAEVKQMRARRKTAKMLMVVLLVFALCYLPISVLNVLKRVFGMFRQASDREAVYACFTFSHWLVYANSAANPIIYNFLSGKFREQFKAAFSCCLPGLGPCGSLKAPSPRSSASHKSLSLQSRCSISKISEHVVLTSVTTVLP

For `C[C@@H]1C2CC(C2)N(C(=O)c2cc(F)ccc2-n2nccn2)C1CNc1nc2cccnc2s1` (single isomer, unassigned) [Example 230, N-{[(3R,4S) or (3S,4R)-2-[5-fluoro-2-(2H-1,2,3-triazol-2-yl)benzoyl]-4-methyl-2-azabicyclo[3.1.1]heptan-3-yl]methyl}-[1,3]thiazolo[5,4-b]pyridin-2-amine], the “OX2 pKi (SPA binding)” value in data set [1] worked out at 5.32. Further, the fraction unbound at 5 h, 5 μM in data set [2] is 0.0438. In addition, the “OX1 pKi (SPA binding)” value in data set [3] came out at 8.46.
On to `C[C@@H]1C2CC(C2)N(C(=O)c2nn(C)cc2-c2ncccn2)C1CNc1ccc(C(F)(F)F)cn1` (mixture of isomers) [Example 213, cis-N-({4-methyl-2-[1-methyl-4-(pyrimidin-2-yl)-1H-pyrazole-3-carbonyl]-2-azabicyclo[3.1.1]heptan-3-yl}methyl)-5-(trifluoromethyl)pyridin-2-amine], for which the “OX2 pKi (SPA binding)” value in data set [1] is listed as 4.39. Besides, in data set [2], the fraction unbound at 5 h, 5 μM is 0.0876. Besides, the “OX1 pKi (SPA binding)” value in data set [3] was 7.91.
Regarding `Cc1ccc(-n2nccn2)c(C(=O)N2C3CC(C3)[C@@H](C)C2CNc2ccc(C(F)(F)F)cn2)n1` (single isomer, unassigned) [Example 183, N-{[(3R,4S) or (3S,4R)-4-methyl-2-[6-methyl-3-(2H-1,2,3-triazol-2-yl)pyridine-2-carbonyl]-2-azabicyclo[3.1.1]heptan-3-yl]methyl}-5-(trifluoromethyl)pyridin2-amine], the “OX2 pKi (SPA binding)” value in data set [1] worked out at 5.26. The fraction unbound at 5 h, 5 μM in data set [2] stood at 0.0256. For the same compound, the “OX1 pKi (SPA binding)” value in data set [3] amounted to 8.31.
In the same order, the values of `Cc1nc(C(=O)N2C3CC(C3)[C@H](C)C2COc2ccc(F)cc2)c(-c2ncccn2)s1` (single isomer, unassigned) [Example 115, (3R,4R) or (3S,4S)-3-[(4-fluorophenoxy)methyl]-4-methyl-2-[2-methyl-5-(pyrimidin-2-yl)-1,3-thiazole-4-carbonyl]-2-azabicyclo[3.1.1]heptane] are 5.93, 0.0151 and 8.5.
For the compound `Cc1ccc(-n2nccn2)c(C(=O)N2C3CC(C3)[C@@H](C)C2CNc2cnc(C(F)(F)F)cn2)n1` (mixture of isomers) [Example 165, cis-N-({4-methyl-2-[6-methyl-3-(2H-1,2,3-triazol-2-yl)pyridine-2-carbonyl]-2-azabicyclo[3.1.1]heptan-3-yl}methyl)-5-(trifluoromethyl)pyrazin-2-amine], the “OX2 pKi (SPA binding)” value in data set [1] came to 4.83. The fraction unbound at 5 h, 5 μM in data set [2] was determined as 0.0477. Moreover, the “OX1 pKi (SPA binding)” value in data set [3] was 7.63.
`Cc1ccc(-n2nccn2)c(C(=O)N2C3CC(C3)[C@H](C)C2COc2ccc(F)cc2)n1` (single isomer, unassigned) [Example 105, (3S,4S or 3R,4R)-3-[(4-fluorophenoxy)methyl]-4-methyl-2-[6-methyl-3-(2H-1,2,3-triazol-2-yl)pyridine-2-carbonyl]-2-azabicyclo[3.1.1]heptane]: the values for the Ki in data set [1] and in data set [3] were 1.32 µM and 0.00631 µM, respectively. Moreover, the fraction unbound at 5 h, 5 μM in data set [2] was found to be 0.0116.
As to `Cc1ccc(-n2nccn2)c(C(=O)N2C3CC(C3)[C@@H](C)C2CNc2nc3cccnc3s2)n1` (single isomer, unassigned) [Example 186, N-({(3R,4S) or (3S,4R)-4-methyl-2-[6-methyl-3-(2H-1,2,3-triazol-2-yl)pyridine-2-carbonyl]-2-azabicyclo[3.1.1]heptan-3-yl}methyl)-[1,3]thiazolo[5,4-b]pyridin-2-amine], in data set [1], the “OX2 pKi (SPA binding)” value came out at 5.36. In data set [2], the fraction unbound at 5 h, 5 μM stood at 0.147. Also, the “OX1 pKi (SPA binding)” value in data set [3] stood at 8.42.
For the compound `Cc1ccc(-n2nccn2)c(C(=O)N2C3CC(C3)[C@@H](C)C2CNc2cnc(C(F)(F)F)cn2)n1` (single isomer, unassigned) [Example 167, N-{[(3R,4S) or (3S,4R)-4-methyl-2-[6-methyl-3-(2H-1,2,3-triazol-2-yl)pyridine-2-carbonyl]-2-azabicyclo[3.1.1]heptan-3-yl]methyl}-5-(trifluoromethyl)pyrazin-2-amine], the “OX2 pKi (SPA binding)” value in data set [1] is on record as 5.13. Moreover, in data set [2], the fraction unbound at 5 h, 5 μM worked out at 0.0593. In data set [3], the “OX1 pKi (SPA binding)” value is recorded as 8.12.
Take `C[C@@H]1C2CC(C2)N(C(=O)c2nn(C)cc2-c2ncccn2)C1CNc1ccc(C(F)(F)F)cn1` (single isomer, unassigned) [Example 215, N-{[(3R,4S) or (3S,4R)-4-methyl-2-{1-methyl-4-(pyrimidin-2-yl)-1H-pyrazole-3-carbonyl]-2-azabicyclo[3.1.1]heptan-3-yl]methyl}-5-(trifluoromethyl)pyridin-2-amine]: the “OX2 pKi (SPA binding)” value in data set [1] turned out to be 4.79. Moreover, in data set [2], the fraction unbound at 5 h, 5 μM is 0.0761. Also, in data set [3], the “OX1 pKi (SPA binding)” value is recorded as 8.15.
As for `C[C@@H]1C2CC(C2)N(C(=O)c2cc(Cl)ccc2-n2nccn2)C1CNc1cnc(C(F)(F)F)cn1` (single isomer, unassigned) [Example 205, N-({(3R,4S) or (3S,4R)2-[5-chloro-2-(2H-1,2,3-triazol-2-yl)benozyl]-4-methyl-2-azabicyclo[3.1.1]heptan-3-yl}methyl)-5-(trifluoromethyl)pyrazin-2-amine], in data set [1], the “OX2 pKi (SPA binding)” value is given as 5.34. For the same compound, the fraction unbound at 5 h, 5 μM in data set [2] was found to be 0.0089. Further, the “OX1 pKi (SPA binding)” value in data set [3] is listed as 8.59.
Consider `C[C@@H]1C2CC(C2)N(C(=O)c2cc(F)ccc2-n2nccn2)C1CNc1cnc(C(F)(F)F)cn1` (single isomer, unassigned) [Example 223, N-{[(3R,4S) or (3S,4R)-2-[5-fluoro-2-(2H-1,2,3-triazol-2-yl)benzoyl]-4-methyl-2-azabicyclo[3.1.1]heptan-3-yl]methyl}-5-(trifluoromethyl)pyrazin-2-amine], for which the “OX2 pKi (SPA binding)” value in data set [1] was 4.98. Also, the fraction unbound at 5 h, 5 μM in data set [2] is 0.022. For the same compound, the “OX1 pKi (SPA binding)” value in data set [3] came to 8.13.
Turning to `C[C@@H]1C2CC(C2)N(C(=O)c2cc(C#N)ccc2-n2nccn2)C1CNc1nc2cccnc2s1` (single isomer, unassigned) [Example 233, 3-[(3R,4S) or (3S,4R)-4-methyl-3-[({[1,3]thiazolo[5,4-b]pyridin-2-yl}amino)methyl]-2-azabicyclo[3.1.1]heptane-2-carbonyl]-4-(2H-1,2,3-triazol-2-yl)benzonitrile], in data set [1], the “OX2 pKi (SPA binding)” value was found to be 5.11. Moreover, the fraction unbound at 5 h, 5 μM in data set [2] worked out at 0.066. Moreover, the “OX1 pKi (SPA binding)” value in data set [3] is recorded as 8.41.
On to `Cc1ccc(-c2ncccn2)c(C(=O)N2C3CC(C3)[C@@H](C)[C@@H]2COc2ccc(F)cc2)n1` (single isomer, unassigned) [Example 93, (3S,4S or 3R,4R)-3-(4-fluorophenoxymethyl)-4-methyl-2-[6-methyl-3-(pyrimidin-2-yl)pyridine-2-carbonyl]-2-azabicyclo[3.1.]heptane], for which the Ki is 0.407 µM in data set [1] and 0.00195 µM in data set [3]. Moreover, the fraction unbound at 5 h, 5 μM in data set [2] worked out at 0.0258.
